Values after ≈ are worked out from the molar mass of the structure shown. Read-outs that look alike come from different tables or passages of the source. Blank lines part the entries; values can stand above or below the compound they belong to.
Tests used:
in vitro [1] = test: in vitro; design: MTT viability assay on human PBMCs, absorbance at 570 nm; settings: human, pbmc; 24 h exposure, MTT; read-out: IC50
Experimental: (§1) The cytotoxicity assay was performed on Human Peripheral Blood Mononuclear cells (H-PBMC, Himedia, India) according to the manufacturer’s instructions. The H-PBMC (40,000 cells/well in 100 μL volume) suspension in RPMI-1640 media (containing 10% fetal bovine serum and 50 U/mL antibiotic-antimycotic solution) (Himedia^, India) was dispensed into 96-well polystyrene tissue culture-treated flat-bottom plates (Corning, U.S.). The plates were incubated for 48 h in a CO2 (5%) incubator at 37°C. After 48 h, the compounds (Ar1-Ar24) were added to the plates in a fresh medium and again incubated for 24 h in a CO2 (5%) incubator at 37°C. Next, MTT (1 mg/mL) was added to the wells, followed by incubation for 4–5 h. The formazan crystals were solubilized using a solubilizing solution (40% (v/v) dimethyl formamide in 2% (v/v) glacial acetic acid added with 16% sodium dodecyl sulfate), and the absorbance (OD570nm) was measured. Considering the lack of effect of EPIs on eukaryotic Ca^2+ ion channels, we further evaluated cytotoxicity on Human Peripheral Blood Mononuclear cells (H-PBMC). […] Our front runners, Ar1, Ar5, and Ar11, had extremely low toxicity toward H-PBMCs. […] Taken together, these experiments provide substantial evidence that Ar5 is non-toxic in vitro and can be used for therapeutic applications in vivo.

in vitro [2] = test: in vitro; design: species or system H-PBMC; MTT viability assay, absorbance at 570 nm, cytotoxicity IC50; settings: human, pbmc; read-out: IC50
Experimental: as §1

[3] = tested on: T1, Escherichia coli ATCC BAA-2774; test: microbe, parasite or virus in culture; design: MIC of antibiotic alone from antibiotic potentiation assay against XDR strain; settings: ATCC BAA-2774 / ATCC BAA-2782, read-out: MIC (μg/mL) / Klebsiella pneumoniae ATCC BAA-2782 / Escherichia coli ATCC BAA-2774
T1 construct: ATCC BAA-2774
Excerpt: (§2) We further tested the potentiation of Ar1, Ar5, Ar11, and Ar18 to RND efflux pump substrates (ciprofloxacin, levofloxacin, tetracycline, tigecycline, erythromycin, piperacillin, and chloramphenicol) against XDR E. coli ATCC BAA-2774 (expressing AcrAB-TolC), K. pneumoniae ATCC BAA-2782 (expressing AcrAB-TolC), and P. aeruginosa ATCC BAA-2795 (expressing MexAB-OprM). […] The fact that compounds potentiate a given antibiotic against efflux pump over-expressed strain but not deletion provides substantial evidence that the inhibition effect is RND efflux pump specific targeting AcrAB and MexAB efflux systems. The antibiotics, chemicals, and dyes were purchased from Sigma-Aldrich Chemical Co. (St. Louis, MO, United States) unless stated otherwise. The E. coli wild-type K-12 AG100 (argE3 thi-1 rpsLxylmtlΔ(gal-uvrB)supE44) and its derivatives, AcrB over-expressing AG100tet and AcrAB knockout AG100A (ΔacrAB::Tn903 Kan^r) were used in the study. AG100tet is derived from AG100 by gradual stepwise exposure to increased concentrations of tetracycline and was grown in the presence of 8 μg/mL tetracycline to maintain efflux pump over-expression. AG100A was grown in the presence of 100 μg/mL kanamycin to preserve the transposon. The P. aeruginosa ATCC BAA-2795 over-expressing MexAB-OprM (Chromachemie, India), and PAO750 (PAO1: ΔmexAB-oprM, ΔmexCD-oprJ, ΔmexEF-oprN, ΔmexXY) were also used in the study. The strains P. aeruginosa ATCC 27853, P. aeruginosa ATCC 15692 (PAO1), K. Pneumoniae ATCC BAA-2782, K. Pneumoniae ATCC 700603, and E. coli ATCC BAA-2774, were purchased from Himedia, India. All the strains were grown in BBL Cation-adjusted Mueller Hinton Broth (CA-MHB; BD, U.S.) at 37°C under standard conditions. Mueller Hinton Agar (MHA; Himedia, India) plates were used for bacterial viability counting.

[4] = tested on: T2, Klebsiella pneumoniae ATCC BAA-2782; test: microbe, parasite or virus in culture; design: MIC of antibiotic alone from antibiotic potentiation assay against XDR strain; settings: ATCCBAA2782, read-out: MIC (μg/mL) / Klebsiella pneumoniae ATCC BAA-2782
T2 construct: ATCC BAA-2782
Excerpt: as §2

[5] = tested on: T3, Pseudomonas aeruginosa ATCC BAA-2795; test: microbe, parasite or virus in culture; design: MIC of antibiotic alone from antibiotic potentiation assay against XDR strain; settings: ATCC BAA-2782 / ATCC BAA-2795, read-out: MIC (μg/mL) / Klebsiella pneumoniae ATCC BAA-2782 / Pseudomonas aeruginosa ATCC BAA-2795
T3 construct: ATCC BAA-2795
Excerpt: as §2

Structure (SMILES): COC(=O)c1cc(-c2ccc(F)cc2)cn1Cc1ccc(F)cc1 [Ar1]
CC50 at 24 h (in vitro [1]): 256 mg/L (≈ 782 µM)
CC50 at 24 h (in vitro [2]): 256 mg/L (≈ 782 µM)

Structure (SMILES): COC(=O)c1cc(-c2cccc(NC(C)=O)c2)cn1Cc1ccc(C)cc1 [Ar11]
CC50 at 24 h (in vitro [1]): > 256 mg/L
CC50 at 24 h (in vitro [2]): > 256 mg/L

Structure (SMILES): CCOC(=O)c1cc(-c2ccc(C(F)(F)F)cc2)cn1Cc1ccc(F)cc1 [Ar16]
CC50 at 24 h (in vitro [1]): 256 mg/L (≈ 654 µM)
CC50 at 24 h (in vitro [2]): 256 mg/L (≈ 654 µM)

Structure (SMILES): CCOC(=O)c1cc(-c2ccc(F)cc2)c[nH]1 [Ar17]
CC50 at 24 h (in vitro [1]): 256 mg/L (≈ 1100 µM)
CC50 at 24 h (in vitro [2]): 256 mg/L (≈ 1100 µM)

Structure (SMILES): CCOC(=O)c1cc(-c2ccc(F)cc2F)cn1Cc1ccc(F)cc1 [Ar18]
CC50 at 24 h (in vitro [1]): > 128 mg/L
CC50 at 24 h (in vitro [2]): > 128 mg/L

Structure (SMILES): CCOC(=O)c1cc(-c2ccc(F)cn2)cn1Cc1ccc(F)cc1 [Ar19]
CC50 at 24 h (in vitro [1]): > 128 mg/L
CC50 at 24 h (in vitro [2]): > 128 mg/L

Structure (SMILES): CCOC(=O)c1cc(-c2cccc(CO)c2)cn1Cc1ccc(F)cc1 [Ar20]
CC50 at 24 h (in vitro [1]): > 128 mg/L
CC50 at 24 h (in vitro [2]): > 128 mg/L

Structure (SMILES): CCOC(=O)c1cc(-c2ccc(C#N)cc2)cn1Cc1ccc(F)cc1 [Ar21]
CC50 at 24 h (in vitro [1]): 256 mg/L (≈ 735 µM)
CC50 at 24 h (in vitro [2]): 256 mg/L (≈ 735 µM)

Structure (SMILES): CCOC(=O)c1cc(-c2ccc(C(F)(F)F)cc2)cn1Cc1ccc(C)cc1 [Ar24]
CC50 at 24 h (in vitro [1]): 256 mg/L (≈ 661 µM)
CC50 at 24 h (in vitro [2]): 256 mg/L (≈ 661 µM)

Structure (SMILES): O=C(N[C@H](CO)[C@H](O)c1ccc([N+](=O)[O-])cc1)C(Cl)Cl [Chloramphenicol]
MIC [3]: 32 µg/mL
MIC [4]: 16 µg/mL
MIC [5]: 256 µg/mL

MIC [3]: 256 µg/mL
MIC [4]: 128 µg/mL
MIC [5]: 256 µg/mL
Structure (SMILES): O=C(O)c1cn(C2CC2)c2cc(N3CCNCC3)c(F)cc2c1=O [Ciprofloxacin]

Structure (SMILES): CC[C@H]1OC(=O)[C@H](C)[C@@H](O[C@H]2C[C@@](C)(OC)[C@@H](O)[C@H](C)O2)[C@H](C)[C@@H](O[C@@H]2O[C@H](C)C[C@H](N(C)C)[C@H]2O)[C@](C)(O)C[C@@H](C)C(=O)[C@H](C)[C@@H](O)[C@]1(C)O [Erythromycin]
MIC [3]: 512 µg/mL
MIC [4]: 128 µg/mL
MIC [5]: 512 µg/mL

Structure (SMILES): C[C@H]1COc2c(N3CCN(C)CC3)c(F)cc3c(=O)c(C(=O)O)cn1c23 [Levofloxacin]
MIC [3]: 32 µg/mL
MIC [4]: 32 µg/mL
MIC [5]: 256 µg/mL

Structure (SMILES): CCN1CCN(C(=O)N[C@@H](C(=O)N[C@@H]2C(=O)N3[C@@H]2SC(C)(C)[C@@H]3C(=O)O)c2ccccc2)C(=O)C1=O [Piperacillin]
MIC [3]: 512 µg/mL
MIC [4]: 1020 µg/mL
MIC [5]: 256 µg/mL

Structure (SMILES): CN(C)[C@@H]1C(O)=C(C(N)=O)C(=O)[C@@]2(O)C(O)=C3C(=O)c4c(O)cccc4[C@@](C)(O)[C@H]3C[C@@H]12 [Tetracycline]
MIC [3]: 256 µg/mL
MIC [4]: 4 µg/mL
MIC [5]: 32 µg/mL

Structure (SMILES): CN(C)c1cc(NC(=O)CNC(C)(C)C)c(O)c2c1C[C@H]1C[C@H]3[C@H](N(C)C)C(O)=C(C(N)=O)C(=O)[C@@]3(O)C(O)=C1C2=O [Tigecycline]
MIC [3]: 128 µg/mL
MIC [4]: 64 µg/mL
MIC [5]: 256 µg/mL
